Where two headings read alike, the source gives them in different places.
Legend:
[1] = tested on: TNFα; assay: Cot Monocyte TNFα Cell Based Assay
[2] = molecular target: Human Cot (Homo sapiens (Human), UniProt P41279); assay: High Throughput Cot Biochemical Assay
[3] = Homo sapiens, Monocyte, read-out: EC50 TNF, LPS-stimulated human monocytes, TNFα TR-FRET
[4] = IC50 HTRF, Cot HTRF (TR-FRET KinEASE) biochemical assay, 400 μM ATP
[5] = Homo sapiens, Monocyte, read-out: EC50 TNF, LPS-stimulated human monocytes, TNFα
[6] = IC50 HTRF, Cot HTRF (TR-FRET) biochemical assay
[7] = read-out: EC50 TNF, LPS-stimulated human monocytes, TNFα
[8] = read-out: IC50 HTRF, Cot HTRF (TR-FRET) biochemical assay

Sequence of Human Cot (P41279 30-397): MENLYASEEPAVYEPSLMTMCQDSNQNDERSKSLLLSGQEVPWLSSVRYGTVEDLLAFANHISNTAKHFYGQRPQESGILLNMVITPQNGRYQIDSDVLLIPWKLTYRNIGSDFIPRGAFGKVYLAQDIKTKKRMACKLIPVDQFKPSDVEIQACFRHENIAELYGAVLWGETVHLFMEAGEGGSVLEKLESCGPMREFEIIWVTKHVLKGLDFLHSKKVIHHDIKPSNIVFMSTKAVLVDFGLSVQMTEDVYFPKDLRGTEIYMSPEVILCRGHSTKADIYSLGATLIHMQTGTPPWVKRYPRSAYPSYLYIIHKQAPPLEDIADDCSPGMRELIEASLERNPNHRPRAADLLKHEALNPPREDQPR

Compound | EC50 [1, 5] | IC50 [2, 6] | also measured
Cc1nc(C#N)ccc1[C@H](Nc1cc(C#N)c2ncc(C#N)c(NCC(C)(C)C)c2c1)c1cn(C2(C(F)(F)F)CC2)nn1 [Example 830, (S)-6-(((6-cyano-2-methylpyridin-3-yl)(1-(1-(trifluoromethyl)cyclopropyl)-1H-1,2,3-triazol-4-yl)methyl)amino)-4-(neopentylamino)quinoline-3,8-dicarbonitrile] |  |  | EC50 [1, 3]: 384 nM; IC50 [2, 4]: 16 nM
Cc1nc(F)ccc1[C@H](Nc1cc(Cl)c2ncc(C#N)c(NCC(C)(C)C)c2c1)c1nnn(C)c1F [Example 963, (S)-8-chloro-6-(((5-fluoro-1-methyl-1H-1,2,3-triazol-4-yl)(6-fluoro-2-methylpyridin-3-yl)methyl)amino)-4-(neopentylamino)quinoline-3-carbonitrile] |  |  | EC50 [1, 3]: 51 nM; IC50 [2, 4]: 4 nM
CC(C)(C)N1CCC(n2cc([C@@H](Nc3cc(Cl)c4ncc(C#N)c(Nc5ccc(F)c(Cl)c5)c4c3)c3ccc4scnc4c3)nn2)CC1 [Example 62, (S)-6-((benzo[d]thiazol-5-yl(1-(1-(tert-butyl)piperidin-4-yl)-1H-1,2,3-triazol-4-yl)methyl)amino)-8-chloro-4-((3-chloro-4-fluorophenyl)amino)quinoline-3-carbonitrile] | 216 nM | 10 nM | 
Cc1nc(F)ccc1[C@H](Nc1cc(Cl)c2ncc(C#N)c(NCC(C)(C)C)c2c1)c1nnn(C2CC2)c1I [Example 643, (S)-8-chloro-6-(((1-cyclopropyl-S-iodo-1H-1,2,3-triazol-4-yl)(6-lluoro-2-methylpyridin-3-yl)methyl)amino)-4-(neopentylamino)quinoline-3-carbonitrile] |  |  | EC50 [1, 7]: 1000 nM; IC50 [2, 8]: 5 nM
CC(C)(C)CNc1c(C#N)cnc2c(C#N)cc(N[C@H](c3cn(C4(C(F)(F)F)CC4)nn3)c3cccc4ncccc34)cc12 [Example 469, (S)-4-(neopentylamino)-6-((quinolin-5-yl(1-(1-(trifluoromethyl)-cyclopropyl)-1H-1,2,3-triazol-4-yl)methyl)amino)quinoline-3,8-dicarbonitrile] | 69 nM | 4 nM | 
N#Cc1cnc2c(Cl)cc(N[C@@H](c3cccnc3)c3c[nH]nn3)cc2c1Nc1ccc(F)c(Cl)c1 [Example 308, (S)-8-chloro-4-((3-chloro-4-fluorophenyl)amino)-6-((pyridin-3-yl(1H-1,2,3-triazol-4-yl)methyl)amino)-quinoline-3-carbonitrile] | 286 nM | 4 nM | 
C[C@@H](CF)n1cc([C@@H](Nc2cc(Cl)c3ncc(C#N)c(NCC(C)(C)C)c3c2)c2cccc3c(=O)n(C)ccc23)nn1 [Example 778, 8-chloro-6-(((S)-(1-((S)-1-fluoropropan-2-yl)-1H-1,2,3-triazol-4-yl)(2-methyl-1-oxo-1,2-dihydroisoquinolin-5-yl)methyl)amino)-4-(neopentylamino)quinoline-3-carbonitrile] | 30 nM | 4 nM | 
CC(C)(C)N1CCC(n2cc([C@@H](Nc3cc(Cl)c4ncc(C#N)c(Nc5ccc(Cl)c(Cl)c5F)c4c3)c3cccnc3)nn2)CC1 [Example 260, (S)-6-(((1-(1-(tert-butyl)piperidin-4-yl)-1H-1,2,3-triazol-4-yl)(pyridin-3-yl)methyl)amino)-8-chloro-4-((3,4-dichloro-2-fluorophenyl)amino)-quinoline-3-carbonitrile] | 126 nM | 6 nM | 
[2H]C(Nc1cc(Cl)c2ncc(C#N)c(NCC(C)(C)C)c2c1)(c1cn(C2CC2)nn1)c1ccc(F)nc1F (stereo not shown) [Example 103, 8-chloro-6-(((1-cyclopropyl-1H-1,2,3-triazol-4-yl)(2,6-difluoropyridin-3-yl)methyl-d)amino)-4-(neopentylamino)quinoline-3-carbonitrile] | 133 nM | 3 nM | 
Cc1ccc2c([C@H](Nc3cc(C#N)c4ncc(C#N)c(NCC(C)(C)C)c4c3)c3cn(C45CC(C4)C5)nn3)cccc2n1 [Example 900, (S)-6-(((1-(bicyclo[1.1.1]pentan-1-yl)-1H-1,2,3-triazol-4-yl)(2-methylquinolin-5-yl)methyl)amino)-4-(neopentylamino)quinoline-3,8-dicarbonitrile] |  |  | EC50 [1, 3]: 30 nM; IC50 [2, 4]: 3 nM
CC(=O)c1cc(N[C@H](c2cn(C3(C(F)(F)F)CC3)nn2)c2cccc3ncsc23)cc2c(NCC(C)(C)C)c(C#N)cnc12 [Example 453, (S)-8-acetyl-6-((benzo[d]thiazol-7-yl(1-(1-(trifluoromethyl)cyclopropyl)-1H-1,2,3-triazol-4-yl)methyl)amino)-4-(neopentylamino)quinoline-3-carbonitrile] | 184 nM | 9 nM | 
COc1cc(N[C@H](c2cn(C3(C#N)CC3)nn2)c2ccc(F)nc2C)cc2c(NCC(C)(C)C)c(C#N)cnc12 [Example 596, (S)-6-(((1-(1-cyanocyclopropyl)-1H-1,2,3-triazol-4-yl)(6-fluoro-2-methylpyridin-3-yl)methyl)amino)-8-methoxy-4-(neopentylamino)quinoline-3-carbonitrile] | 826 nM | 79 nM | 
Cc1nc(F)ccc1[C@H](Nc1cc(Cl)c2ncc(C#N)c(NCC(C)(C)C)c2c1)c1nnn(C2(C(F)F)CC2)c1F [Example 960, (S)-8-chloro-6-(((1-(1-(difluoromethyl)cyclopropyl)-5-fluoro-1H-1,2,3-triazol-4-yl)(6-fluoro-2-methylpyridin-3-yl)methyl)amino)-4-(neopentylamino)quinoline-3-carbonitrile] |  |  | EC50 [1, 3]: 55 nM; IC50 [2, 4]: 7 nM
Cn1ccc2c([C@H](Nc3cc(C#N)c4ncc(C#N)c(NCC(C)(C)C)c4c3)c3cn(C4(C)CC4)nn3)cccc2c1=O [Example 879, (S)-6-(((2-methyl-1-oxo-1,2-dihydroisoquinolin-5-yl)(1-(1-methylcyclopropyl)-1H-1,2,3-triazol-4-yl)methyl)amino)-4-(neopentylamino)quinoline-3,8-dicarbonitrile] |  |  | EC50 [1, 3]: 13 nM; IC50 [2, 4]: 1 nM
CC(C)(C)CNc1c(C#N)cnc2c(Cl)cc(N[C@H](c3cn(C4CC4)nn3)c3ccc(F)nc3Cl)cc12 [Example 436, (S)-8-chloro-6-(((2-chloro-6-fluoro-pyridin-3-yl)(1-cyclopropyl-1H-1,2,3-triazol-4-yl)methyl)amino)-4-(neo-pentylamino)quinoline-3-carbonitrile] | 289 nM | 5 nM | 
C[C@@H](CF)n1cc([C@@H](Nc2cc(Cl)c3ncc(C#N)c(Nc4cnc(F)c(F)c4)c3c2)c2cccnc2)nn1 [Example 197, 8-chloro-4-((5,6-difluoropyridin-3-yl)amino)-6-(((S)-(1-((S)-1-fluoropropan-2-yl)-1H-1,2,3-triazol-4-yl)(pyridin-3-yl)methyl)amino)quinoline-3-carbonitrile] | 599 nM | 9 nM | 
CC(C)(C)CNc1c(C#N)cnc2c(C#N)cc(N[C@H](c3cn(C4(C(F)(F)F)CC4)nn3)c3cccc4c(=O)n(C(F)F)ccc34)cc12 [Example 889, (S)-6-(((2-(difluoromethyl)-1-oxo-1,2-dihydroisoquinolin-5-yl)(1-(1-(trifluoromethyl)cyclopropyl)-1H-1,2,3-triazol-4-yl)methyl)amino)-4-(neopentylamino)quinoline-3,8-dicarbonitrile] |  |  | EC50 [1, 3]: 104 nM; IC50 [2, 4]: 9 nM
Cc1nc(Cl)ccc1[C@H](Nc1cc(Cl)c2ncc(C#N)c(NCC(C)(C)C)c2c1)c1cn(C2(C(F)F)CC2)nn1 [Example 718, (S)-8-chloro-6-(((6-chloro-2-methylpyridin-3-yl)(1-(1-(difluoromethyl)cyclopropyl)-1H-1,2,3-triazol-4-yl)methyl)amino)-4-(neopentylamino)quinoline-3-carbonitrile] | 112 nM | 9 nM | 
[2H][C@](Nc1cc(Cl)c2ncc(C#N)c(N[C@H](CC#N)c3ccccc3)c2c1)(c1ccc(F)nc1)c1cn(C2CC2)nn1 [Example 129, 8-chloro-4-(((R)-2-cyano-1-phenylethyl)amino)-6-(((S)-(1-cyclopropyl-1H-1,2,3-triazol-4-yl)(6-fluoropyridin-3-yl)methyl-d)amino)quinoline-3-carbonitrile] | 81 nM | 2 nM | 
Cc1nc(F)ccc1[C@H](Nc1cc(Cl)c2ncc(C#N)c(NCC(C)(C)C)c2c1)c1cn(C(C)(C)C(F)(F)F)nn1 [Example 541, (S)-8-chloro-6-(((6-fluoro-2-methyl-pyridin-3-yl)(1-(1,1,1-trifluoro-2-methylpropan-2-yl)-1H-1,2,3-triazol-4-yl)methyl)amino)-4-(neopentylamino)-quinoline-3-carbonitrile] | 180 nM | 6 nM | 
CC(C)(C)CNc1c(C#N)cnc2c(Cl)cc(N[C@H](c3cn(C4(C(N)=O)CC4)nn3)c3cccc4ncsc34)cc12 [Example 416, (S)-1-(4-(benzo[d]thiazol-7-yl((8-chloro-3-cyano-4-(neopentylamino)quinolin-6-yl)amino)methyl)-1H-1,2,3-triazol-1-yl)cyclopropane-1-carboxamide] | 124 nM | 2 nM | 
Cc1c([C@H](Nc2cc(Cl)c3ncc(C#N)c(NCC(C)(C)C)c3c2)c2cn(C3(C(F)F)CC3)nn2)ccc(=O)n1C [Example 732, (S)-8-chloro-6-(((1-(1-(difluoromethyl)cyclopropyl)-1H-1,2,3-triazol-4-yl)(1,2-dimethyl-6-oxo-1,6-dihydropyridin-3-yl)methyl)amino)-4-(neopentylamino)quinoline-3-carbonitrile] | 779 nM | 11 nM | 
Cn1nccc1[C@H](Nc1cc(C#N)c2ncc(C#N)c(NCC(C)(C)C)c2c1)c1cn(C2(C(F)F)CC2)nn1 [Example 677, (S)-6-(((1-(l-(difluoromethyl)-cyclopropyl)-1H-1,2,3-triazol-4-yl)(1-methyl-1H-pyrazol-5-yl)methyl)amino)-4-(neopentylamino)quinoline-3,8-dicarbonitrile] |  |  | EC50 [1, 7]: 133 nM; IC50 [2, 8]: 4 nM

— US11066414B2, “Cot modulators and methods of use thereof” (Gilead Sciences, Inc., priority 2015, dated 2021)
